Among the data in ChEMBL document CHEMBL3112580, “A new face for old antibiotics: tetracyclines in treatment of amyloidoses” (2013) are Activity and Survival values, retold here.

One assay is filed under the species Homo sapiens. Put plainly: Antiprion activity at scrapie prion protein in human brain at 1 mM after 1 hr by Western blotting analysis. In kind it is tissue-based.
In assay [1] the test system is Mus musculus. Put plainly: Antiamyloidogenic activity in CMV-lambda6 mouse harboring human lambda LC protein at 0.5 mg/ml administered in drinking water for 3 to 6 months by Congo red staining-based microscopy. In kind it is functional.
For assay [2], the species on record is Mus musculus. Put plainly: Antiamyloidogenic activity in R6/2 mouse Huntington's disease model assessed as increase in survival rate relative to control. The format is functional.
Assay [3] is filed under the species Mus musculus. Put plainly: Antiamyloidogenic activity in mouse transfected with human amylin/amyloid polypeptide assessed as increase in survival time relative to control. The format is functional.

Take `C[C@H]1c2cccc(O)c2C(=O)C2=C(O)[C@]3(O)C(=O)C(C(N)=O)=C(O)[C@@H](N(C)C)[C@@H]3[C@@H](O)[C@@H]21.O` [DOXYCYCLINE]: the Activity is 80% in the assay listed under Homo sapiens and 23% with Mus musculus [1].
As for `CN(C)c1ccc(O)c2c1C[C@H]1C[C@H]3[C@H](N(C)C)C(O)=C(C(N)=O)C(=O)[C@@]3(O)C(O)=C1C2=O` [MINOCYCLINE], the Survival in the assay filed under Mus musculus [2] was found to be 14%.
Consider `CN(C)[C@@H]1C(O)=C(C(N)=O)C(=O)[C@@]2(O)C(O)=C3C(=O)c4c(O)cccc4[C@@](C)(O)[C@H]3C[C@@H]12` [TETRACYCLINE], for which, in the assay filed under Mus musculus [3], the Survival is on record as 254%.
